# Laboratory results reported in US10294202B2, “Pyrrolidinones as herbicides” (FMC Corporation, priority 2013, dated 2019).
# Assays:
# chickweed = experiment: Test D pre-/postemergence herbicide test; assay type: in vivo, Stellaria media; details: for Plant response rating: Chickweed, scale 0 to 100; for Plant response rating, Chickweed: scale 0 to 100 (0 no effect, 100 complete control)
# In short: (§1)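 Postemergence sprays were made on plants at the 1- to 4-leaf stage in peat-based medium, and preemergence sprays on seeds planted in silt loam. The formulation was a non-phytotoxic solvent mixture containing surfactant. Plants were compared with controls after 7 to 21 days and rated visually on a 0–100 scale.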
# bromegrass, downy = experiment: Test D pre-/postemergence herbicide test; assay type: in vivo, Bromus tectorum; details: for Plant response rating: Bromegrass, Downy, scale 0 to 100; for Plant response rating, Bromegrass, Downy: scale 0 to 100 (0 no effect, 100 complete control)
# In short: as §1
# lambsquarters = experiment: Test D pre-/postemergence herbicide test; assay type: in vivo, Chenopodium album; details: for Plant response rating: Lambsquarters, scale 0 to 100; for Plant response rating, Lambsquarters: scale 0 to 100 (0 no effect, 100 complete control)
# In short: as §1
# chamomile = experiment: Test D pre-/postemergence herbicide test; assay type: in vivo, Matricaria inodora; details: for Plant response rating: Chamomile, scale 0 to 100; for Plant response rating, Chamomile: scale 0 to 100 (0 no effect, 100 complete control)
# In short: as §1
# buckwheat, wild = experiment: Test D pre-/postemergence herbicide test; assay type: in vivo, Polygonum convolvulus; details: for Plant response rating: Buckwheat, Wild, scale 0 to 100; for Plant response rating, Buckwheat, Wild: scale 0 to 100 (0 no effect, 100 complete control)
# In short: as §1
# oat, wild = experiment: Test D pre-/postemergence herbicide test; assay type: in vivo, Avena fatua; details: for Plant response rating: Postemergence, Oat, Wild, scale 0 to 100; for Plant response rating, Oat, Wild: Preemergence, scale 0 to 100 (0 no effect, 100 complete control)
# In short: as §1
# velvetleaf = experiment: Test E preemergence herbicide test; assay type: in vivo, Abutilon theophrasti; set-up: key: 0 = no effect, 100 = complete control
# In short: (§2)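 Response is a 0–100 visual rating against controls (100 = complete control), taken 21 days after preemergence treatment of seeded silt loam soil held in a greenhouse.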
# pigweed, palmer = experiment: Test E preemergence herbicide test; assay type: in vivo, Amaranthus palmeri; set-up: key: 0 = no effect, 100 = complete control
# In short: as §2
# crabgrass, large = experiment: Test E preemergence herbicide test; assay type: in vivo, Digitaria sanguinalis; set-up: key: 0 = no effect, 100 = complete control
# In short: as §2
# goosegrass = experiment: Test E preemergence herbicide test; assay type: in vivo, Eleusine indica; set-up: key: 0 = no effect, 100 = complete control
# In short: as §2
smiles,measurement,setting,value
O=C1NCC(c2ccc(C(F)(F)F)cc2)C1C(=O)Nc1cccc(F)c1F (racemic) [Compound 202],Plant response rating,"chickweed; Postemergence, 31 g ai/ha",75
same,Plant response rating,"chickweed; Postemergence, 62 g ai/ha",75
same,Plant response rating,"chickweed; Postemergence, 125 g ai/ha",80
same,Plant response rating,"chickweed; Postemergence, 250 g ai/ha",80
same,"Plant response rating, Chickweed","chickweed; Preemergence, 62 g ai/ha",80
same,"Plant response rating, Chickweed","chickweed; Preemergence, 31 g ai/ha",45
same,Plant response rating,"chickweed; Preemergence, 125 g ai/ha",90
same,Plant response rating,"chickweed; Preemergence, 250 g ai/ha",95
same,Plant response rating,"bromegrass, downy; Postemergence, 31 g ai/ha",0
same,Plant response rating,"bromegrass, downy; Postemergence, 62 g ai/ha",0
same,Plant response rating,"bromegrass, downy; Postemergence, 125 g ai/ha",5
same,Plant response rating,"bromegrass, downy; Postemergence, 250 g ai/ha",15
same,"Plant response rating, Bromegrass, Downy","bromegrass, downy; Preemergence, 62 g ai/ha",0
same,"Plant response rating, Bromegrass, Downy","bromegrass, downy; Preemergence, 31 g ai/ha",0
same,Plant response rating,"bromegrass, downy; Preemergence, 125 g ai/ha",0
same,Plant response rating,"bromegrass, downy; Preemergence, 250 g ai/ha",20
same,Plant response rating,"lambsquarters; Postemergence, 31 g ai/ha",65
same,Plant response rating,"lambsquarters; Postemergence, 62 g ai/ha",60
same,Plant response rating,"lambsquarters; Postemergence, 125 g ai/ha",70
same,Plant response rating,"lambsquarters; Postemergence, 250 g ai/ha",75
same,"Plant response rating, Lambsquarters","lambsquarters; Preemergence, 62 g ai/ha",85
same,"Plant response rating, Lambsquarters","lambsquarters; Preemergence, 31 g ai/ha",80
same,Plant response rating,"lambsquarters; Preemergence, 125 g ai/ha",85
same,Plant response rating,"lambsquarters; Preemergence, 250 g ai/ha",85
same,Plant response rating,"chamomile; Postemergence, 31 g ai/ha",5
same,Plant response rating,"chamomile; Postemergence, 62 g ai/ha",60
same,Plant response rating,"chamomile; Postemergence, 125 g ai/ha",65
same,Plant response rating,"chamomile; Postemergence, 250 g ai/ha",60
same,"Plant response rating, Chamomile","chamomile; Preemergence, 62 g ai/ha",65
same,"Plant response rating, Chamomile","chamomile; Preemergence, 31 g ai/ha",60
same,Plant response rating,"chamomile; Preemergence, 125 g ai/ha",75
same,Plant response rating,"chamomile; Preemergence, 250 g ai/ha",100
same,Plant response rating,"buckwheat, wild; Postemergence, 31 g ai/ha",0
same,Plant response rating,"buckwheat, wild; Postemergence, 62 g ai/ha",0
same,Plant response rating,"buckwheat, wild; Postemergence, 125 g ai/ha",0
same,Plant response rating,"buckwheat, wild; Postemergence, 250 g ai/ha",10
same,"Plant response rating, Buckwheat, Wild","buckwheat, wild; Preemergence, 62 g ai/ha",10
same,"Plant response rating, Buckwheat, Wild","buckwheat, wild; Preemergence, 31 g ai/ha",0
same,Plant response rating,"buckwheat, wild; Preemergence, 125 g ai/ha",10
same,Plant response rating,"buckwheat, wild; Preemergence, 250 g ai/ha",15
same,Plant response rating,"oat, wild; 31 g ai/ha",5
same,Plant response rating,"oat, wild; 62 g ai/ha",10
same,Plant response rating,"oat, wild; 125 g ai/ha",10
same,Plant response rating,"oat, wild; 250 g ai/ha",15
same,"Plant response rating, Oat, Wild","oat, wild; 62 g ai/ha",20
same,"Plant response rating, Oat, Wild","oat, wild; 125 g ai/ha",35
same,"Plant response rating, Oat, Wild","oat, wild; 31 g ai/ha",5
same,"Plant response rating, Oat, Wild","oat, wild; 250 g ai/ha",40
same,"Plant response rating, Velvetleaf",velvetleaf; 31 g ai/ha,0
same,"Plant response rating, Velvetleaf",velvetleaf; 62 g ai/ha,0
same,"Plant response rating, Velvetleaf",velvetleaf; 125 g ai/ha,0
same,"Plant response rating, Velvetleaf",velvetleaf; 250 g ai/ha,40
same,"Plant response rating, Pigweed, Palmer","pigweed, palmer; 31 g ai/ha",0
same,"Plant response rating, Pigweed, Palmer","pigweed, palmer; 62 g ai/ha",70
same,"Plant response rating, Pigweed, Palmer","pigweed, palmer; 125 g ai/ha",85
same,"Plant response rating, Pigweed, Palmer","pigweed, palmer; 250 g ai/ha",80
same,"Plant response rating, Crabgrass, Large","crabgrass, large; 31 g ai/ha",98
same,"Plant response rating, Crabgrass, Large","crabgrass, large; 62 g ai/ha",98
same,"Plant response rating, Crabgrass, Large","crabgrass, large; 125 g ai/ha",98
same,"Plant response rating, Crabgrass, Large","crabgrass, large; 250 g ai/ha",98
same,"Plant response rating, Goosegrass",goosegrass; 31 g ai/ha,35
same,"Plant response rating, Goosegrass",goosegrass; 62 g ai/ha,70
same,"Plant response rating, Goosegrass",goosegrass; 125 g ai/ha,90
same,"Plant response rating, Goosegrass",goosegrass; 250 g ai/ha,98
"O=C1NCC(c2ccc(F)c(F)c2)C1C(=O)Nc1cccc(F)c1F (stereo not drawn) [Compound 17, N-(2,3-difluorophenyl)-4-(3,4-difluorophenyl)-2-oxo-3-pyrrolidinecarboxamide]",Plant response rating,"chickweed; Postemergence, 16 g ai/ha",0
same,Plant response rating,"chickweed; Postemergence, 31 g ai/ha",0
same,Plant response rating,"chickweed; Postemergence, 62 g ai/ha",0
same,Plant response rating,"chickweed; Postemergence, 125 g ai/ha",25
same,Plant response rating,"chickweed; Postemergence, 250 g ai/ha",30
same,Plant response rating,"bromegrass, downy; Postemergence, 16 g ai/ha",0
same,Plant response rating,"bromegrass, downy; Postemergence, 31 g ai/ha",0
same,Plant response rating,"bromegrass, downy; Postemergence, 62 g ai/ha",0
same,Plant response rating,"bromegrass, downy; Postemergence, 125 g ai/ha",0
same,Plant response rating,"bromegrass, downy; Postemergence, 250 g ai/ha",0
same,Plant response rating,"lambsquarters; Postemergence, 16 g ai/ha",0
same,Plant response rating,"lambsquarters; Postemergence, 31 g ai/ha",0
same,Plant response rating,"lambsquarters; Postemergence, 62 g ai/ha",0
same,Plant response rating,"lambsquarters; Postemergence, 125 g ai/ha",20
same,Plant response rating,"lambsquarters; Postemergence, 250 g ai/ha",40
same,Plant response rating,"chamomile; Postemergence, 16 g ai/ha",0
same,Plant response rating,"chamomile; Postemergence, 31 g ai/ha",0
same,Plant response rating,"chamomile; Postemergence, 62 g ai/ha",0
same,Plant response rating,"chamomile; Postemergence, 125 g ai/ha",0
same,Plant response rating,"chamomile; Postemergence, 250 g ai/ha",0
same,Plant response rating,"buckwheat, wild; Postemergence, 16 g ai/ha",0
same,Plant response rating,"buckwheat, wild; Postemergence, 31 g ai/ha",0
same,Plant response rating,"buckwheat, wild; Postemergence, 62 g ai/ha",0
same,Plant response rating,"buckwheat, wild; Postemergence, 125 g ai/ha",10
same,Plant response rating,"buckwheat, wild; Postemergence, 250 g ai/ha",20
same,Plant response rating,"oat, wild; 16 g ai/ha",0
same,Plant response rating,"oat, wild; 31 g ai/ha",0
same,Plant response rating,"oat, wild; 62 g ai/ha",0
same,Plant response rating,"oat, wild; 125 g ai/ha",0
same,Plant response rating,"oat, wild; 250 g ai/ha",0
same,"Plant response rating, Velvetleaf",velvetleaf; 16 g ai/ha,0
same,"Plant response rating, Velvetleaf",velvetleaf; 31 g ai/ha,0
same,"Plant response rating, Velvetleaf",velvetleaf; 62 g ai/ha,0
same,"Plant response rating, Velvetleaf",velvetleaf; 125 g ai/ha,0
same,"Plant response rating, Velvetleaf",velvetleaf; 250 g ai/ha,0
same,"Plant response rating, Pigweed, Palmer","pigweed, palmer; 16 g ai/ha",0
same,"Plant response rating, Pigweed, Palmer","pigweed, palmer; 31 g ai/ha",0
same,"Plant response rating, Pigweed, Palmer","pigweed, palmer; 62 g ai/ha",0
same,"Plant response rating, Pigweed, Palmer","pigweed, palmer; 125 g ai/ha",0
same,"Plant response rating, Pigweed, Palmer","pigweed, palmer; 250 g ai/ha",0
same,"Plant response rating, Crabgrass, Large","crabgrass, large; 16 g ai/ha",15
same,"Plant response rating, Crabgrass, Large","crabgrass, large; 31 g ai/ha",20
same,"Plant response rating, Crabgrass, Large","crabgrass, large; 62 g ai/ha",70
same,"Plant response rating, Crabgrass, Large","crabgrass, large; 125 g ai/ha",75
same,"Plant response rating, Crabgrass, Large","crabgrass, large; 250 g ai/ha",95
same,"Plant response rating, Goosegrass",goosegrass; 16 g ai/ha,0
same,"Plant response rating, Goosegrass",goosegrass; 31 g ai/ha,0
same,"Plant response rating, Goosegrass",goosegrass; 62 g ai/ha,0
same,"Plant response rating, Goosegrass",goosegrass; 125 g ai/ha,0
same,"Plant response rating, Goosegrass",goosegrass; 250 g ai/ha,35
